Legend:
[1] = Stability of diluted topotecan in a hang-bag; type: physicochemical; conditions: 24 hours
Procedure: Topotecan diluted in saline (10 ug/ml or 500 ug/ml) or dextrose (6.7 ug/ml or 330 ug/ml) is stable in a hang-bag for 24 hours with at least 95% recovery.

[2] = Stability of diluted topotecan solutions in plastic bags at room temperature; type: physicochemical
Procedure: Solution Preparation--When the 5 mg vial is reconstituted with 2 ml of Sterile Water for Injection, USP, each ml will contain 2.5 mg of topotecan as the base and 50 mg of mannitol, USP. Topotecan must not be diluted or mixed with buffered solutions because of solubility and stability considerations.
Stability--Shelf life surveillance of the intact vials is ongoing. Because the single-use lyophilized dosage form contains no antibacterial preservatives, it is advised that the reconstituted solution be discarded eight hours after initial entry into the vial. Futher dilutions of the reconstituted solution to concentrations of 0.02 mg/ml and 0.1 mg.ml in 5% Dextrose Injection, USP, ("D5W") or 0.9% Sodium Chloride Injection, USP, ("NS") in plastic bags stored at room temperature yielded the following stability results: […]

ovarian cancer = assay: Treatment of a human patient with ovarian cancer, tumor size regression evaluated by CAT scan; type: in vivo; conditions: one platinum-refractory patient, 1.5 mg/m^2/day i.v. for five consecutive days, sustained at least until the tenth treatment
Procedure: One human patient with ovarian cancer, who was refractory to two previous platinum-containing regimens (i.e., cisplatin-cyclophosphamide combination regimen and treatment with single agent carboplatin), received a course of therapy comprising intravenous administration of 1.5 mg of topotecan/m^2 of body surface area per day for five consecutive days. This course of therapy was repeated […] nine more times to date at twenty-one day intervals (from the date of initiation of therapy) for a total of ten treatments. Tumor size regression was evaluated by CAT (computerized axial tomography) scan. […] At least until the tenth treatment, this clinically significant response was sustained, i.e., a greater than fifty percent (50%) tumor size regression was obtained.

Structure (SMILES): CC[C@@]1(O)C(=O)OCc2c1cc1n(c2=O)Cc2cc3c(CN(C)C)c(O)ccc3nc2-1 [Topotecan, (S)-10[(dimethylamino)methyl]-4-ethyl-4,9-dihydroxy-1 H-pyrano[3',4':6,7]indolizino[1,2-b]quinolone-3,14(4 H,12 H)-dione]
- recovery (stable in a hang-bag) ([1]; dextrose, 6.7 ug/ml or 330 ug/ml): at least 95%
- recovery (stable in a hang-bag) ([1]; saline, 10 ug/ml or 500 ug/ml): at least 95%
- Percentage of Initial Topotecan Remaining in Solution ([2]; D5W, 0.02 mg/ml, 0 hrs): 100.00%
- Percentage of Initial Topotecan Remaining in Solution ([2]; D5W, 0.02 mg/ml, 6 hrs): 99.29%
- Percentage of Initial Topotecan Remaining in Solution ([2]; D5W, 0.02 mg/ml, 24 hrs): 102.30%
- Percentage of Initial Topotecan Remaining in Solution ([2]; D5W, 0.02 mg/ml, 48 hrs): 101.98%
- Percentage of Initial Topotecan Remaining in Solution ([2]; D5W, 0.1 mg/ml, 0 hrs): 100.00%
- Percentage of Initial Topotecan Remaining in Solution ([2]; D5W, 0.1 mg/ml, 6 hrs): 99.68%
- Percentage of Initial Topotecan Remaining in Solution ([2]; D5W, 0.1 mg/ml, 24 hrs): 98.16%
- Percentage of Initial Topotecan Remaining in Solution ([2]; D5W, 0.1 mg/ml, 48 hrs): 97.91%
- Percentage of Initial Topotecan Remaining in Solution ([2]; NS, 0.02 mg/ml, 0 hrs): 100.00%
- Percentage of Initial Topotecan Remaining in Solution ([2]; NS, 0.02 mg/ml, 6 hrs): 98.58%
- Percentage of Initial Topotecan Remaining in Solution ([2]; NS, 0.02 mg/ml, 24 hrs): 96.01%
- Percentage of Initial Topotecan Remaining in Solution ([2]; NS, 0.02 mg/ml, 48 hrs): 102.03%
- Percentage of Initial Topotecan Remaining in Solution ([2]; NS, 0.1 mg/ml, 0 hrs): 100.00%
- Percentage of Initial Topotecan Remaining in Solution ([2]; NS, 0.1 mg/ml, 6 hrs): 97.71%
- Percentage of Initial Topotecan Remaining in Solution ([2]; NS, 0.1 mg/ml, 24 hrs): 98.30%
- Percentage of Initial Topotecan Remaining in Solution ([2]; NS, 0.1 mg/ml, 48 hrs): 98.35%
- tumor size regression, sustained (ovarian cancer): > 50%
